Laboratory results published in ChEMBL document CHEMBL1201862, “PubChem BioAssay data set” (2004).
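How tested: cells in 96-well plates exposed to compound for 48 hours at five concentrations. Abbreviation: GI50, concentration required for 50% inhibition of growth.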 Calls of active or inactive are those of the source. Rule as the data show it: active = GI50 up to about 1.1 µM and inactive = higher.

Tests used:
Test in all cases: NCI-60 cell line screen, 48 h
[1] = test system: 786-0
[2] = test system: A498
[3] = test system: BT-549
[4] = test system: HCT-116
[5] = test system: HL-60
[6] = test system: HOP-62
[7] = test system: K562
[8] = test system: KM12
[9] = test system: M14
[10] = test system: MDA-MB-435
[11] = test system: MDA-N
[12] = test system: MOLT-4
[13] = test system: NCI-H23
[14] = test system: PC-3
[15] = test system: RPMI-8226
[16] = test system: SK-MEL-2
[17] = test system: SK-MEL-5
[18] = test system: UACC-257
[19] = test system: UACC-62

SMILES	GI50 [1]	GI50 [2]	GI50 [3]	GI50 [4]	GI50 [5]	GI50 [6]	GI50 [7]	GI50 [8]	GI50 [9]	GI50 [10]	GI50 [11]	GI50 [12]	GI50 [13]	GI50 [14]	GI50 [15]	GI50 [16]	GI50 [17]	GI50 [18]	GI50 [19]
Cc1ccc(/C=C/C(=N/NC(=O)N/N=C(/C=C/c2ccc(C)cc2)C(C)(C)CN2CCCCC2)C(C)(C)CN2CCCCC2)cc1	1.39 µM (inactive)	1.67 µM (inactive)	2.1 µM (inactive)	1.34 µM (inactive)	1.63 µM (inactive)	1.65 µM (inactive)	0.122 µM (active)	1.64 µM (inactive)	0.614 µM (active)	1.45 µM (inactive)	1.52 µM (inactive)	0.125 µM (active)	2.19 µM (inactive)	1.69 µM (inactive)	0.258 µM (active)	1.94 µM (inactive)	1.67 µM (inactive)	1.72 µM (inactive)	2.3 µM (inactive)
CC(C)C(O)(C(C)C)C(C)C	> 100 µM (inactive)	> 100 µM (inactive)	> 100 µM (inactive)	> 100 µM (inactive)	> 100 µM (inactive)	> 100 µM (inactive)	> 100 µM (inactive)	> 100 µM (inactive)	> 100 µM (inactive)	> 100 µM (inactive)	> 100 µM (inactive)	> 100 µM (inactive)	> 100 µM (inactive)	> 100 µM (inactive)	> 100 µM (inactive)	> 100 µM (inactive)	> 100 µM (inactive)	> 100 µM (inactive)	> 100 µM (inactive)
CC(=O)O[C@H]1C(=O)[C@@]2(C)[C@H]([C@H](OC(=O)c3ccncc3)[C@]3(O)C[C@H](OC(=O)[C@H](O)[C@@H](NC(=O)c4ccccc4)c4ccccc4)C(C)=C1C3(C)C)[C@]1(OC(C)=O)CO[C@@H]1C[C@@H]2O	6.81 µM (inactive)	> 15.5 µM (inactive)	14.5 µM (inactive)	1.1 µM (active)	0.471 µM (active)	> 12.4 µM (inactive)	0.953 µM (active)	2.61 µM (inactive)	7.06 µM (inactive)	0.714 µM (active)	0.877 µM (active)	1.39 µM (inactive)	12.6 µM (inactive)	6.56 µM (inactive)	0.881 µM (active)	6.71 µM (inactive)	2.3 µM (inactive)	8.3 µM (inactive)	2.66 µM (inactive)
O=c1[nH]c(Nc2nc3ccccc3[nH]2)nc(O)c1Cc1ccccc1	61.5 µM (inactive)	> 100 µM (inactive)	> 100 µM (inactive)	> 100 µM (inactive)	> 100 µM (inactive)		> 100 µM (inactive)	> 100 µM (inactive)	> 100 µM (inactive)	> 100 µM (inactive)	> 100 µM (inactive)	> 100 µM (inactive)	> 100 µM (inactive)	> 100 µM (inactive)	> 100 µM (inactive)	> 100 µM (inactive)	> 100 µM (inactive)	> 100 µM (inactive)	> 100 µM (inactive)
O=C1C=C2CO[C@H]3OC[C@H](O)[C@@H]1[C@@H]23	35 µM (inactive)	> 100 µM (inactive)	53.1 µM (inactive)	88.1 µM (inactive)	23.6 µM (inactive)	> 100 µM (inactive)	26.9 µM (inactive)	> 100 µM (inactive)	> 100 µM (inactive)	30.9 µM (inactive)	35.2 µM (inactive)	28.9 µM (inactive)	> 100 µM (inactive)	> 100 µM (inactive)	20.4 µM (inactive)	16.3 µM (inactive)	> 100 µM (inactive)	29.8 µM (inactive)	67.5 µM (inactive)
Cc1ccc(S(=O)(=O)NNC(=O)c2cc(C)c(C)cc2N)cc1	> 100 µM (inactive)	> 100 µM (inactive)	> 100 µM (inactive)	> 100 µM (inactive)	> 100 µM (inactive)	> 100 µM (inactive)	> 100 µM (inactive)	> 100 µM (inactive)	> 10 µM (inactive)	> 100 µM (inactive)	> 100 µM (inactive)	66.2 µM (inactive)	> 100 µM (inactive)	> 100 µM (inactive)	> 100 µM (inactive)		> 100 µM (inactive)	> 100 µM (inactive)	> 100 µM (inactive)
CCCCCCCCCCCCCCCCOC[C@H](COC(c1ccccc1)(c1ccccc1)c1ccccc1)O[PH](=S)OC (stereo partly drawn)	> 100 µM (inactive)	> 100 µM (inactive)	> 100 µM (inactive)	> 100 µM (inactive)	> 100 µM (inactive)		> 100 µM (inactive)	> 100 µM (inactive)	> 100 µM (inactive)	> 100 µM (inactive)	> 100 µM (inactive)	> 100 µM (inactive)	> 100 µM (inactive)	> 100 µM (inactive)	> 100 µM (inactive)	> 100 µM (inactive)	> 100 µM (inactive)	> 100 µM (inactive)	> 100 µM (inactive)
Cc1ccc(C(=O)Nc2ccc(CP(=O)(O)O)cc2)cc1NC(=O)Nc1cc(C(=O)Nc2ccc(CP(=O)(O)O)cc2)ccc1C	> 100 µM (inactive)	> 100 µM (inactive)	> 100 µM (inactive)	> 100 µM (inactive)	> 100 µM (inactive)	> 100 µM (inactive)		> 100 µM (inactive)	> 100 µM (inactive)	> 100 µM (inactive)	> 100 µM (inactive)	> 100 µM (inactive)	> 100 µM (inactive)	> 100 µM (inactive)	> 100 µM (inactive)	> 100 µM (inactive)	> 100 µM (inactive)	> 100 µM (inactive)	> 100 µM (inactive)
C=C1C(=O)O[C@@H]2C[C@@]3(C)CC(=O)C=C(C)[C@@H]3C[C@H]12	12.4 µM (inactive)	> 10 µM (inactive)	10.8 µM (inactive)	5.32 µM (inactive)	1.71 µM (inactive)	18 µM (inactive)		18.6 µM (inactive)	13.5 µM (inactive)	5.66 µM (inactive)	3.74 µM (inactive)	3.04 µM (inactive)	13.8 µM (inactive)	18.2 µM (inactive)	2.12 µM (inactive)	12.9 µM (inactive)	10 µM (inactive)	12.2 µM (inactive)	14.6 µM (inactive)
CN(C)CCCNC(=O)c1c(O)c2ccccc2[nH]c1=O	> 100 µM (inactive)	> 100 µM (inactive)	> 100 µM (inactive)	> 100 µM (inactive)	> 100 µM (inactive)	> 100 µM (inactive)	> 100 µM (inactive)	> 100 µM (inactive)		> 100 µM (inactive)	> 100 µM (inactive)	> 100 µM (inactive)	> 100 µM (inactive)	> 100 µM (inactive)	> 100 µM (inactive)	> 100 µM (inactive)	> 100 µM (inactive)	> 100 µM (inactive)	> 100 µM (inactive)
Clc1ccc(OCc2nnc(COc3ccc(OCc4nnc(COc5ccc(Cl)cc5Cl)o4)c(Cl)c3)o2)c(Cl)c1	30.8 µM (inactive)	48.3 µM (inactive)	69.2 µM (inactive)	44.1 µM (inactive)	23.1 µM (inactive)	51.6 µM (inactive)	24.3 µM (inactive)	45.7 µM (inactive)	76.4 µM (inactive)	42.7 µM (inactive)	47.3 µM (inactive)		48.1 µM (inactive)	29.9 µM (inactive)	17.3 µM (inactive)	33.8 µM (inactive)	41.1 µM (inactive)	> 100 µM (inactive)	40.5 µM (inactive)
CC1(C)OC(=O)C(=Cc2ccc([N+](=O)[O-])s2)C(=O)O1	16.9 µM (inactive)	22.5 µM (inactive)	13.4 µM (inactive)	2.4 µM (inactive)	2.49 µM (inactive)	18.2 µM (inactive)		14.7 µM (inactive)	12.3 µM (inactive)	14.9 µM (inactive)	14.9 µM (inactive)	8.22 µM (inactive)	18.1 µM (inactive)	19.2 µM (inactive)	8.32 µM (inactive)		16.2 µM (inactive)	18.6 µM (inactive)	
CC(=O)O[C@H]1CC[C@H]2[C@@H]3CCC4=C(C(=O)C=CC4(C)OC(C)=O)[C@H]3CC[C@]12C (stereo partly drawn)	86.7 µM (inactive)	> 100 µM (inactive)	26.2 µM (inactive)	33.2 µM (inactive)	27.3 µM (inactive)	> 100 µM (inactive)	33.1 µM (inactive)	29.1 µM (inactive)	46.8 µM (inactive)	49.4 µM (inactive)	34.6 µM (inactive)	33.9 µM (inactive)	35.8 µM (inactive)	48 µM (inactive)	38.3 µM (inactive)		47.9 µM (inactive)	> 100 µM (inactive)	23.1 µM (inactive)
CC(=O)OCC1=CC2OC(=O)C3=COC(OC4OC(CO)C(O)C(O)C4O)C1C32 (stereo not drawn)	> 100 µM (inactive)	> 100 µM (inactive)	> 100 µM (inactive)	> 100 µM (inactive)	> 100 µM (inactive)	> 100 µM (inactive)		> 100 µM (inactive)	> 100 µM (inactive)	> 100 µM (inactive)	> 100 µM (inactive)		> 100 µM (inactive)	> 100 µM (inactive)	> 100 µM (inactive)	> 100 µM (inactive)	> 100 µM (inactive)	> 100 µM (inactive)	> 100 µM (inactive)
